Reference: PubChem BioAssay AID1963451 (Molecular Pharmacology Branch, DTP, NCI, 2024)
Each block holds one compound with its values, some of them ahead of it.

Test system: 521955-158-R6-J3-PDC complex spheroid growth, % test/control
Experiment: Anticancer human tumor 521955-158-R6-J3-PDC patient-derived pancreatic carcinoma cell line growth inhibition [Asc]
Details: for IC50: curve of first compound; for viability, T/C: stronger effect = lower value
Summary of the method: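 Complex spheroids combining tumor cells with HUVEC endothelial cells and human MSCs, at 37 degrees C, 5% CO2; agents tested alone or combined, half-log dilutions from at or near clinical Cmax, or 10 microM if Cmax unknown.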

[1] = second compound 0.0316 µM, first compound 0.0316 µM
[2] = second compound 0.0316 µM, first compound 0.1 µM
[3] = second compound 0.0316 µM, first compound 0.316 µM
[4] = second compound 0.0316 µM, first compound 1 µM
[5] = second compound 0.0316 µM, first compound 3.16 µM
[6] = second compound 0.0316 µM, first compound 10 µM
[7] = second compound 0.1 µM, first compound 0.0316 µM
[8] = second compound 0.1 µM, first compound 0.1 µM
[9] = second compound 0.1 µM, first compound 0.316 µM
[10] = second compound 0.1 µM, first compound 1 µM
[11] = second compound 0.1 µM, first compound 3.16 µM
[12] = second compound 0.1 µM, first compound 10 µM
[13] = second compound 0.316 µM, first compound 0.0316 µM
[14] = second compound 0.316 µM, first compound 0.1 µM
[15] = second compound 0.316 µM, first compound 0.316 µM
[16] = second compound 0.316 µM, first compound 1 µM
[17] = second compound 0.316 µM, first compound 3.16 µM
[18] = second compound 0.316 µM, first compound 10 µM
[19] = second compound 1 µM, first compound 0.0316 µM
[20] = second compound 1 µM, first compound 0.1 µM
[21] = second compound 1 µM, first compound 0.316 µM
[22] = second compound 1 µM, first compound 1 µM
[23] = second compound 1 µM, first compound 3.16 µM
[24] = second compound 1 µM, first compound 10 µM
[25] = second compound 3.16 µM, first compound 0.0316 µM
[26] = second compound 3.16 µM, first compound 0.1 µM
[27] = second compound 10 µM, first compound 0.0316 µM
[28] = second compound 10 µM, first compound 0.1 µM
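Also: spheroids exposed to compounds for 7 days.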
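For viability, T/C in this document: 100% = DMSO vehicle control wells.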

IC50 (second compound 0.0316 µM): > 10 µM | IC50 (second compound 0.1 µM): > 10 µM | IC50 (second compound 0.316 µM): 0.786 µM | IC50 (second compound 1 µM): < 0.0316 µM | IC50 (second compound 3.16 µM): < 0.0316 µM | IC50 (second compound 10 µM): < 0.0316 µM
SMILES: O=C(c1cc(Cc2n[nH]c(=O)c3ccccc23)ccc1F)N1CCN(C(=O)C2CC2)CC1 + Cc1c(S(C)(=O)=O)c(-c2cc(F)cc(N3CCN(c4ccc(NS(=O)(=O)c5ccc(NC(CCN6CCC(C(=O)OCCCP(=O)(O)O)CC6)CSc6ccccc6)c(S(=O)(=O)C(F)(F)F)c5)cc4)CC3)c2)c(-c2ccc(Cl)cc2)n1C(C)C
viability, T/C [1]: 77.8% | viability, T/C [2]: 86.6% | viability, T/C [3]: 87.5% | viability, T/C [4]: 83.3% | viability, T/C [5]: 75.6% | viability, T/C [6]: 76.8% | viability, T/C [7]: 88.4% | viability, T/C [8]: 71.9% | viability, T/C [9]: 64% | viability, T/C [10]: 62.6% | viability, T/C [11]: 60.7% | viability, T/C [12]: 54% | viability, T/C [13]: 56.4% | viability, T/C [14]: 61.7% | viability, T/C [15]: 52.6% | viability, T/C [16]: 48.6% | viability, T/C [17]: 41.7% | viability, T/C [18]: 35% | viability, T/C [19]: 41% | viability, T/C [20]: 34.6% | viability, T/C [21]: 31.1% | viability, T/C [22]: 30.1% | viability, T/C [23]: 32.4% | viability, T/C [24]: 27.2% | viability, T/C [25]: 23.3% | viability, T/C [26]: 19.1% | viability, T/C (second compound 3.16 µM, first compound 0.316 µM): 17.1% | viability, T/C (second compound 3.16 µM, first compound 1 µM): 19.3% | viability, T/C (second compound 3.16 µM, first compound 3.16 µM): 16% | viability, T/C (second compound 3.16 µM, first compound 10 µM): 13.4% | viability, T/C [27]: 14.4% | viability, T/C [28]: 15.4% | viability, T/C (second compound 10 µM, first compound 0.316 µM): 11.7% | viability, T/C (second compound 10 µM, first compound 1 µM): 13% | viability, T/C (second compound 10 µM, first compound 3.16 µM): 10% | viability, T/C (second compound 10 µM, first compound 10 µM): 9.06%

IC50 (second compound 0.00316 µM): > 10 µM | IC50 (second compound 0.01 µM): > 10 µM | IC50 (second compound 0.0316 µM): > 10 µM | IC50 (second compound 0.1 µM): > 10 µM | IC50 (second compound 0.316 µM): > 10 µM | IC50 (second compound 1 µM): > 10 µM
SMILES: O=C(c1cc(Cc2n[nH]c(=O)c3ccccc23)ccc1F)N1CCN(C(=O)C2CC2)CC1 + CNC(C)C(=O)NC1CN(S(=O)(=O)c2cccc(S(=O)(=O)N3CCC4CCC(C(=O)NC(c5ccccc5)c5ccccc5)N4C(=O)C(NC(=O)C(C)NC)C3)c2)CCC2CCC(C(=O)NC(c3ccccc3)c3ccccc3)N2C1=O
viability, T/C (second compound 0.00316 µM, first compound 0.0316 µM): 159% | viability, T/C (second compound 0.00316 µM, first compound 0.1 µM): 159% | viability, T/C (second compound 0.00316 µM, first compound 0.316 µM): 153% | viability, T/C (second compound 0.00316 µM, first compound 1 µM): 151% | viability, T/C (second compound 0.00316 µM, first compound 3.16 µM): 155% | viability, T/C (second compound 0.00316 µM, first compound 10 µM): 160% | viability, T/C (second compound 0.01 µM, first compound 0.0316 µM): 166% | viability, T/C (second compound 0.01 µM, first compound 0.1 µM): 133% | viability, T/C (second compound 0.01 µM, first compound 0.316 µM): 148% | viability, T/C (second compound 0.01 µM, first compound 1 µM): 153% | viability, T/C (second compound 0.01 µM, first compound 3.16 µM): 138% | viability, T/C (second compound 0.01 µM, first compound 10 µM): 119% | viability, T/C [1]: 97.5% | viability, T/C [2]: 87.8% | viability, T/C [3]: 87.7% | viability, T/C [4]: 74.3% | viability, T/C [5]: 132% | viability, T/C [6]: 84.9% | viability, T/C [7]: 92% | viability, T/C [8]: 81.5% | viability, T/C [9]: 87.4% | viability, T/C [10]: 85.8% | viability, T/C [11]: 138% | viability, T/C [12]: 82.3% | viability, T/C [13]: 92.5% | viability, T/C [14]: 81.5% | viability, T/C [15]: 74.3% | viability, T/C [16]: 72.7% | viability, T/C [17]: 138% | viability, T/C [18]: 81.7% | viability, T/C [19]: 93.3% | viability, T/C [20]: 85.4% | viability, T/C [21]: 95.1% | viability, T/C [22]: 89.3% | viability, T/C [23]: 138% | viability, T/C [24]: 80.8%

IC50 (second compound 0.0316 µM): > 0.1 µM | IC50 (second compound 0.1 µM): > 0.1 µM | IC50 (second compound 0.316 µM): < 0.000316 µM | IC50 (second compound 1 µM): < 0.000316 µM | IC50 (second compound 3.16 µM): < 0.000316 µM | IC50 (second compound 10 µM): < 0.000316 µM
SMILES: NC1CCC(NC2CC2c2ccccc2)CC1 (stereo unspecified) + Cc1c(S(C)(=O)=O)c(-c2cc(F)cc(N3CCN(c4ccc(NS(=O)(=O)c5ccc(NC(CCN6CCC(C(=O)OCCCP(=O)(O)O)CC6)CSc6ccccc6)c(S(=O)(=O)C(F)(F)F)c5)cc4)CC3)c2)c(-c2ccc(Cl)cc2)n1C(C)C
viability, T/C (second compound 0.0316 µM, first compound 0.000316 µM): 83.7% | viability, T/C (second compound 0.0316 µM, first compound 0.001 µM): 97.1% | viability, T/C (second compound 0.0316 µM, first compound 0.00316 µM): 80.8% | viability, T/C (second compound 0.0316 µM, first compound 0.01 µM): 92.7% | viability, T/C [1]: 96.6% | viability, T/C [2]: 90.4% | viability, T/C (second compound 0.1 µM, first compound 0.000316 µM): 97.7% | viability, T/C (second compound 0.1 µM, first compound 0.001 µM): 94.7% | viability, T/C (second compound 0.1 µM, first compound 0.00316 µM): 87.4% | viability, T/C (second compound 0.1 µM, first compound 0.01 µM): 74.8% | viability, T/C [7]: 79.1% | viability, T/C [8]: 73.3% | viability, T/C (second compound 0.316 µM, first compound 0.000316 µM): 47.1% | viability, T/C (second compound 0.316 µM, first compound 0.001 µM): 51.2% | viability, T/C (second compound 0.316 µM, first compound 0.00316 µM): 55.4% | viability, T/C (second compound 0.316 µM, first compound 0.01 µM): 61.9% | viability, T/C [13]: 43.9% | viability, T/C [14]: 63.8% | viability, T/C (second compound 1 µM, first compound 0.000316 µM): 29% | viability, T/C (second compound 1 µM, first compound 0.001 µM): 36.1% | viability, T/C (second compound 1 µM, first compound 0.00316 µM): 38.5% | viability, T/C (second compound 1 µM, first compound 0.01 µM): 29.1% | viability, T/C [19]: 45.4% | viability, T/C [20]: 36.6% | viability, T/C (second compound 3.16 µM, first compound 0.000316 µM): 16.8% | viability, T/C (second compound 3.16 µM, first compound 0.001 µM): 19.4% | viability, T/C (second compound 3.16 µM, first compound 0.00316 µM): 20% | viability, T/C (second compound 3.16 µM, first compound 0.01 µM): 20.5% | viability, T/C [25]: 20.6% | viability, T/C [26]: 18.4% | viability, T/C (second compound 10 µM, first compound 0.000316 µM): 16.8% | viability, T/C (second compound 10 µM, first compound 0.001 µM): 11.2% | viability, T/C (second compound 10 µM, first compound 0.00316 µM): 16.9% | viability, T/C (second compound 10 µM, first compound 0.01 µM): 11.9% | viability, T/C [27]: 11.8% | viability, T/C [28]: 11.5%
